We go through one compound from BindingDB's records for doi:10.1124/jpet.103.049254 (Schering-Plough Research Institute, 2003).

For experiment [1], the target named is Histamine H1 receptor (Cavia porcellus, UniProt P31389).
The target in experiment [2] is Histamine H2 receptor (Cavia porcellus, UniProt P47747).
In experiment [3] the target is Hrh3 protein (Rattus norvegicus, UniProt Q5PPG3).
In experiment [4] the target is Nischarin (Rattus norvegicus, UniProt Q4G017).

Structures are written as SMILES.

Histamine H1 receptor, sequence (P31389 whole entry): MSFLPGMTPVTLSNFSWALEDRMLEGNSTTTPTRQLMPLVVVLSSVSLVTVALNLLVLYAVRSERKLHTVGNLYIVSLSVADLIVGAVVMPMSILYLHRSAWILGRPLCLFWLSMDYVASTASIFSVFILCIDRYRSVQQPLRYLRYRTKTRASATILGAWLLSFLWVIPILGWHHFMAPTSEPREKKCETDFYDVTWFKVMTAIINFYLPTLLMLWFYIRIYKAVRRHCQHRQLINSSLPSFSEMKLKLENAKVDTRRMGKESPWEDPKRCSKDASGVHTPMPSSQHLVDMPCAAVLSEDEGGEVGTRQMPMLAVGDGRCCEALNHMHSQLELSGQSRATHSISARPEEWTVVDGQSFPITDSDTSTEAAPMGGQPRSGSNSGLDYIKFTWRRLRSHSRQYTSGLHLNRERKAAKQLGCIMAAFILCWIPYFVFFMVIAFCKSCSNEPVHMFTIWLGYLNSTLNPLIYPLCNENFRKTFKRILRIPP
Hrh3 protein, sequence (Q5PPG3 whole entry): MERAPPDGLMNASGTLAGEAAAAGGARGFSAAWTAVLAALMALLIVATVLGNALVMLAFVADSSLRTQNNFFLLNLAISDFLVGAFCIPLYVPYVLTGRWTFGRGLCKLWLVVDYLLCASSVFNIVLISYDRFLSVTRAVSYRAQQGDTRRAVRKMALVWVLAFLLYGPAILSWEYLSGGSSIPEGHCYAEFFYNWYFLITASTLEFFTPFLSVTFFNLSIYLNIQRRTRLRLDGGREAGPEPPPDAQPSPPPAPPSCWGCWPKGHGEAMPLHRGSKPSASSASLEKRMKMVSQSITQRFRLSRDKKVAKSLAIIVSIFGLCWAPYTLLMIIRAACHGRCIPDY
Nischarin, sequence (Q4G017 whole entry): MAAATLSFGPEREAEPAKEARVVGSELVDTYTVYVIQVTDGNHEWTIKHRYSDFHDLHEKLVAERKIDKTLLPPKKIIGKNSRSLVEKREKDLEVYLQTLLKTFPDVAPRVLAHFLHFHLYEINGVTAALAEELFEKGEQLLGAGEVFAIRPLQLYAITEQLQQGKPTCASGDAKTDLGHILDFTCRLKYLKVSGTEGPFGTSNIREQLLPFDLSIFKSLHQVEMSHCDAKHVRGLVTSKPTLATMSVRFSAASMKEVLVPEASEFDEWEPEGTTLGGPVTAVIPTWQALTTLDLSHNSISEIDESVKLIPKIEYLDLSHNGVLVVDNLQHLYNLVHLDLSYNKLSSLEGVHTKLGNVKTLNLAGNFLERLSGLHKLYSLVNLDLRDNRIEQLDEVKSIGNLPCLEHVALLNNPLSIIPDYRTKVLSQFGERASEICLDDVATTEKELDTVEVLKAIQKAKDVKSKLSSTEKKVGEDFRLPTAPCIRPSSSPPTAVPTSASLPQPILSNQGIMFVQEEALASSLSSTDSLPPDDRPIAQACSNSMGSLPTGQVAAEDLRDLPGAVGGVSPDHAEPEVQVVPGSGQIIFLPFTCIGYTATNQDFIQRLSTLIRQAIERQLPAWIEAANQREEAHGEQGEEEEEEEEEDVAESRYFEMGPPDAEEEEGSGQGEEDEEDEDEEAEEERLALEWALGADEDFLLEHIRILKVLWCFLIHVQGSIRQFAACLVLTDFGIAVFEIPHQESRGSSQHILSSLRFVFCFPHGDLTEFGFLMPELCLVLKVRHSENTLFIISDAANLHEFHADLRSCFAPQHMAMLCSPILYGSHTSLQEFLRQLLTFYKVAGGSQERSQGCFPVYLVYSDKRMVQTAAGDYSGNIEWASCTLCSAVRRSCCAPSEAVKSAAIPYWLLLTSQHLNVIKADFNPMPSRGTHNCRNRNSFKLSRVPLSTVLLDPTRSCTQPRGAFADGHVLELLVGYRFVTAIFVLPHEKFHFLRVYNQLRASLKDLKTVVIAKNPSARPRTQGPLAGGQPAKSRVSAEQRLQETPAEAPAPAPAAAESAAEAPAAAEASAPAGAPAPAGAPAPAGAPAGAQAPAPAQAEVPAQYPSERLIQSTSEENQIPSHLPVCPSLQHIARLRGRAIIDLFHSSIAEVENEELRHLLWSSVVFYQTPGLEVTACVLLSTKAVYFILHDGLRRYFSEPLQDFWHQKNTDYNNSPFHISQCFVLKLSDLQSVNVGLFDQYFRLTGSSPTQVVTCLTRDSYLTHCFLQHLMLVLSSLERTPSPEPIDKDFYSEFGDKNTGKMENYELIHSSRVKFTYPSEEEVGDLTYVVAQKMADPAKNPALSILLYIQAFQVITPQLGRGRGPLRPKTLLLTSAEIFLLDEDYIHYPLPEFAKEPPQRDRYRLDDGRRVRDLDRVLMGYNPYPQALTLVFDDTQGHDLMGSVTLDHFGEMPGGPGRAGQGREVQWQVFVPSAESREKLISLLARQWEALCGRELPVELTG
Histamine H2 receptor, sequence (P47747 whole entry): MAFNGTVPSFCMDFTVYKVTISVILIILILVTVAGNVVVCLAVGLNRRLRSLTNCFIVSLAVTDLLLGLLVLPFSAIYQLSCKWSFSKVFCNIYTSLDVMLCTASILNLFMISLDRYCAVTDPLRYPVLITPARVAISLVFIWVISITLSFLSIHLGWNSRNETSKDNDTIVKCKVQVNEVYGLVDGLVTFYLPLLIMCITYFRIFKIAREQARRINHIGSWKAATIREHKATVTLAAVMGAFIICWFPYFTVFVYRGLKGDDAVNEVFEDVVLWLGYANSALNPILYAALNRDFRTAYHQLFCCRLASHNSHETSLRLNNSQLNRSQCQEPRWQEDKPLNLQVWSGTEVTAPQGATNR

The term Ki denotes the equilibrium dissociation constant of an inhibitor or competing ligand from its target. On to `O=C(NCc1ccc(Cc2c[nH]cn2)cc1)Nc1cc(Cl)cc(Cl)c1`, for which the Ki was 1000 nM in experiment [1], 1000 nM in experiment [2], 1.9 nM in experiment [3] and 155 nM in experiment [4].
